The target in this assay is T1, human PPARα (Homo sapiens, UniProt Q07869).
T1 construct: expressed in transfected cells; host or cells: CHO-K1
T1 sequence (Q07869 239-466 limits assumed): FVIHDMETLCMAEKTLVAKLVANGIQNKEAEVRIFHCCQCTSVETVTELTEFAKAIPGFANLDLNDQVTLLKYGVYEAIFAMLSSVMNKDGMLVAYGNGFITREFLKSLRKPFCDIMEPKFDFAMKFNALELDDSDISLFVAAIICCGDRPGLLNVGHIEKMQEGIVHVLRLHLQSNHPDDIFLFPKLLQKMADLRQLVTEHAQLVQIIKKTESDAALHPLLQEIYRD
The assay can be described thus: Activation of human PPARα: GAL4-PPARα LBD luciferase reporter transactivation in CHO-K1 cells. The format is cell-based. The following applies: CHO-K1 cells co-transfected with GAL4 DNA-binding domain/human PPARα ligand-binding domain fusion, firefly luciferase reporter normalized to Renilla; 20 hours with test compound. An excerpt: Activation of Human Peroxisome Proliferator-Activated Receptor α (PPARα)
CHO-K1 cells cultured in Ham's F12 medium supplemented with 10% fetal calf serum (FCS) were co-transfected with a receptor-expression plasmid engineered to express a fusion protein in which the DNA-binding domain of yeast transcription factor GAL4 is fused to the ligand-binding domain of human PPARα (Biochemistry, 1993, 32, 5598), a reporter plasmid (firefly luciferase reporter plasmid, STRATAGENE) and a Renilla luciferase reporter plasmid as an internal control. The plasmids were co-transfected for 2 hours in serum-free medium using Lipofectamine (Invitrogen). Subsequently, the cells were cultured at 37° C. for 20 hours in Ham's F12 medium supplemented with 10% defatted bovine serum and a test compound. The activity of the two luciferases was then measured and firefly luciferase activity was normalized to the internal control Renilla luciferase activity.
(A reporter such as luciferase makes a cellular process visible.)

Usually EC50 stands for the concentration that produces a half-maximal response. Read a low EC50 as an effect from little substance. `Cc1nc(-c2ccc(Cl)cc2)sc1C(=O)NCC1CCCN(c2ccccc2CC(=O)O)C1` (stereo not shown) [Example 8, 2-[3-[[2-(4-chlorophenyl)-4-methylthiazol-5-yl]carbonylaminomethyl]piperidin-1-yl]phenylacetic Acid] returned an EC50 of 0.0001 µM.
`Cc1nc(-c2ccc(Cl)cc2)sc1C(=O)NCC1CCCN(c2cccc(CC(=O)O)c2)C1` (stereo not shown) [Example 9, 3-[3-[[2-(4-chlorophenyl)-4-methylthiazol-5-yl]carbonylaminomethyl]piperidin-1-yl]phenylacetic acid] showed an EC50 of 0.045 µM.
Regarding `Cc1nc(-c2ccc(Cl)cc2)sc1C(=O)NC1CCCN(c2cccc(CC(=O)O)c2)C1` (stereo not shown) [Example 11, 3-[3-[[2-(4-chlorophenyl)-4-methylthiazol-5-yl]carbonylamino]piperidin-1-yl]phenylacetic acid], the concentration for a half-maximal effect (EC50) is 0.037 µM.
`Cc1nc(-c2ccc(Cl)cc2)sc1C(=O)NC1CCCN(c2cccc(OC(C)(C)C(=O)O)c2)C1` (stereo not shown) [Example 14, 2-[3-[3-[[2-(4-chlorophenyl)-4-methylthiazol-5-yl]carbonylamino]piperidin-1-yl]phenoxy]-2-methylpropionic acid]: the EC50 is 0.067 µM.

Source of the values: patent US20090036489A1, “Novel Cyclic Aminophenylalkanoic Acid Derivative” (priority 2005, published 2009).
